According to PubChem BioAssay (NCI):
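The compound was tested at five concentrations on cells cultured in 96-well plates, with a 48-hour exposure period. TGI is the concentration that stops growth completely.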

Assays:
Test in all cases: NCI anticancer screen, dose series, 48 h
BT-549 breast = system: BT-549 breast
NCI-H226 lung = system: NCI-H226 lung
HS 578T breast = system: HS 578T breast
SF-268 CNS = system: SF-268 CNS
HL-60(TB) leukemia = system: HL-60(TB) leukemia
A549 NSCLC = system: A549 NSCLC
HCT-116 colon = system: HCT-116 colon
MDA-MB-435 = system: MDA-MB-435
HCT-15 colon = system: HCT-15 colon
T-47D breast = system: T-47D breast
PC-3 prostate = system: PC-3 prostate
HT29 colon = system: HT29 colon
MDA-MB-231 breast = system: MDA-MB-231 breast
KM20L2 colon = system: KM20L2 colon
HOP-18 NSCLC = system: HOP-18 NSCLC
SNB-78 CNS = system: SNB-78 CNS
OVCAR-4 ovarian = system: OVCAR-4 ovarian
NCI/ADR-RES ovarian = system: NCI/ADR-RES ovarian
DMS 114 small cell lung = system: DMS 114 small cell lung
LXFL 529 NSCLC = system: LXFL 529 NSCLC

Row | Structure (SMILES) | TGI (BT-549 breast) [µM] | TGI (NCI-H226 lung) [µM] | TGI (HS 578T breast) [µM] | TGI (SF-268 CNS) [µM] | TGI (HL-60(TB) leukemia) [µM] | TGI (A549 NSCLC) [µM] | TGI (HCT-116 colon) [µM] | TGI (MDA-MB-435) [µM] | TGI (HCT-15 colon) [µM] | TGI (T-47D breast) [µM] | TGI (PC-3 prostate) [µM] | TGI (HT29 colon) [µM] | TGI (MDA-MB-231 breast) [µM] | TGI (KM20L2 colon) [µM] | TGI (HOP-18 NSCLC) [µM] | TGI (SNB-78 CNS) [µM] | TGI (OVCAR-4 ovarian) [µM] | TGI (NCI/ADR-RES ovarian) [µM] | TGI (DMS 114 small cell lung) [µM] | TGI (LXFL 529 NSCLC) [µM]
1 | COc1ccc(-c2c3c(nc4nc(SC)nc(SC)c24)CCCC3)cc1OC | > 100 | > 100 | 86.3 | > 100 | 51.4 | > 100 | > 100 | > 100 | > 100 | > 100 | > 100 | > 100 | > 100 | – | – | – | – | – | – | –
2 | CC1OC1C(=O)C1(O)C(C)C(O)C23OC2(C(O)c2c(O)cccc2C3=O)C1O (centres undefined) | – | 0.838 | – | 0.525 | 0.383 | 0.519 | 0.703 | – | 0.926 | – | – | 0.629 | – | 1.14 | 0.489 | 3.46 | 0.0982 | 0.732 | 0.191 | –
3 | Cc1ccc(Nc2nc(NS(=O)(=O)c3cc(C(=O)Nc4ccc(Cl)cc4)c(Cl)cc3S)n[nH]2)cc1 | > 100 | – | > 100 | > 100 | > 100 | > 100 | > 100 | > 100 | > 100 | > 100 | > 100 | > 100 | > 100 | – | – | – | > 100 | > 100 | – | –
4 | O=C(NN1C(=O)CSC1c1ccc(C(F)(F)F)cc1)c1ccncc1 (centres undefined) | – | > 100 | – | > 100 | > 100 | > 100 | > 100 | – | > 100 | – | – | > 100 | – | > 100 | > 100 | > 31.6 | > 100 | > 100 | > 100 | –
5 | CN1CCN(c2cc(-c3cc4ccccc4o3)oc(=O)c2C#N)CC1 | – | 60.7 | – | > 100 | > 100 | > 100 | > 100 | – | > 100 | – | – | > 100 | – | > 100 | – | > 100 | > 100 | – | > 100 | > 100
6 | CC(c1ccccc1)/[N+]([O-])=C/c1ccccc1 (centres undefined) | – | – | – | > 100 | > 100 | > 100 | > 100 | – | – | – | – | > 100 | – | > 100 | > 100 | > 100 | – | – | > 100 | > 100
7 | NC(=S)N/N=C1\c2ccccc2CCC1CCC1(O)CCc2ccccc2C1=O (centres undefined) | 31.6 | – | 63 | > 100 | 20.6 | > 100 | 40.2 | 46.4 | > 100 | 28.9 | 88.7 | 45.9 | > 100 | – | – | – | > 100 | 79.1 | – | –
8 | CCc1nnc(-c2nsc3ccccc23)s1 | – | – | – | > 100 | > 100 | > 100 | > 100 | – | > 100 | – | – | > 100 | – | > 100 | > 100 | > 100 | > 100 | – | > 100 | > 100
9 | CCOP(=O)(CN=C(c1ccccc1)c1ccccc1)OCC | – | > 100 | > 100 | – | > 100 | > 100 | > 100 | > 100 | > 100 | > 100 | > 100 | > 100 | > 100 | – | – | – | > 100 | > 100 | – | –
